For orientation: MIC means the lowest concentration that inhibits growth of the organism.

This is an account of results in patent US3939266A, “Substituted sulfonylacetamido cephalosporins” (SmithKline Corporation, priority 1974, dated 1976).

≈ marks a conversion by molar mass, not a printed value. Where only a bound is given, the exact number is not on record here.

Holding throughout (assay type): cell-based
One assay relates to Strep. pyog. C 203. Kind of assay: MIC against Strep. pyog. C 203.
The next assay relates to S. aureus SK 23390. Kind of assay: MIC against S. aureus SK 23390. Conditions: Staphylococcus aureus, SK23390.
The next assay has as its system Shigella HH 112. Kind of assay: MIC against Shigella HH 112. Conditions: HH112; Shigella HH 112; read-out: MIC.
The next assay relates to Serra. marc. ATCC 13880. The experiment in a line: MIC against Serra. marc. ATCC 13880.
The test system of a further assay is Kleb. pneumo. SK 1200. Kind of assay: MIC against Kleb. pneumo. SK 1200.
Another assay relates to Kleb. pneumo. SK 4200. Kind of assay: MIC against Kleb. pneumo. SK 4200.
The test system of assay [1] is Entero. aerog. ATCH 13048. The experiment in a line: MIC against Entero. aerog. ATCH 13048.
A further assay has as its system E. coli HH 33779. The experiment in a line: MIC against E. coli HH 33779. The following applies: Escherichia coli, HH33779.
Another assay has as its system Strep. faecalis HH 34358. Kind of assay: MIC against Strep. faecalis HH 34358. Conditions: Enterococcus faecalis, HH34358.
For a further assay, the system named is E. coli SK 12140. The experiment in a line: MIC against E. coli SK 12140. Conditions: Escherichia coli, SK12140; E. coli SK 12140; read-out: MIC.
Another assay concerns Entero. cloaca PaSL 969. The experiment in a line: MIC against Entero. cloaca PaSL 969.
The next assay concerns S. villaluz. Kind of assay: MIC against S. villaluz.
The test system of the next assay is Salmonella ATCC 12176. The experiment in a line: MIC against Salmonella ATCC 12176. The following applies: ATCC12176; Salmonella ATCC 12176; read-out: MIC.
The test system of the next assay is S. aureus HH 127. The experiment in a line: MIC against S. aureus HH 127. The following applies: Staphylococcus aureus, HH127.
For the next assay, the system named is Pseudo. sp. HH 63. Kind of assay: MIC against Pseudo. sp. HH 63.

Consider `Cc1nc(SCC2=C(C(=O)O)N3C(=O)C(NC(=O)CS(C)(=O)=O)C3SC2)n[nH]1` (stereo not drawn) [Compound 59586], for which the MIC is 0.2 µg/mL (≈ 0.447 µM) in the assay with Strep. pyog. C 203; 0.8 µg/mL (≈ 1.79 µM) with S. aureus SK 23390; 12.5 µg/mL (≈ 27.9 µM) with Shigella HH 112; above 200 µg/mL with Serra. marc. ATCC 13880; 3.1 µg/mL (≈ 6.93 µM) in the assay with Kleb. pneumo. SK 1200; 3.1 µg/mL (≈ 6.93 µM) with Kleb. pneumo. SK 4200. In addition, the minimum inhibitory concentration (MIC) in assay [1] was 200 µg/mL (≈ 447 µM); in the assay on E. coli HH 33779 it was 25 µg/mL (≈ 55.9 µM); against Strep. faecalis HH 34358 it was 100 µg/mL (≈ 223 µM); in the assay on E. coli SK 12140 it was 6.3 µg/mL (≈ 14.1 µM); against Entero. cloaca PaSL 969, above 200 µg/mL; in the assay on S. villaluz, 100 µg/mL (≈ 223 µM). Also, the minimal inhibitory concentration (MIC) with Salmonella ATCC 12176 is 1.6 µg/mL (≈ 3.58 µM); in the assay with S. aureus HH 127 it was 1.6 µg/mL (≈ 3.58 µM); against Pseudo. sp. HH 63 it was above 200 µg/mL.
